Measured values: patent publication US20100330126A1, “Attenuated malaria blood-stage vaccine” (priority 2009, published 2010)

What was measured:
Assay type in all cases: biochemical
[1] = system: P. yoelii PNP; assay: Phosphorylase activity assay, kinetic constants of recombinant PyPNP; settings: for Km / kcat: substrate of P. yoelii PNP, 50 mM KPO4, pH 7.4
Text: Expression, Purification, and Characterization of PyPNP. Recombinant PyPNP was expressed with a C-terminal 6×His tag and the c-myc epitope and purified from induced bacterial culture by nickel affinity chromatography under native conditions. Like PfPNP, recombinant PyPNP elutes from gel filtration chromatography as a single peak consisting of homohexameric protein (≈180 kDa; data not shown). On a denatured SDS-PAGE gel, the protein ran as a single band with a molecular mass of 29.94 kDa. […] The catalytic efficiencies (kcat/Km) of PyPNP for these substrates were very similar to those observed in PfPNP (Table 2).
Cloning and Expression of P. yoelii PNP. PyPNP was identified as a protein of 244 amino acids and 26.943 kDa by protein sequence homology to PfPNP (gene PY04622; PlasmoDB.org). The PyPNP open reading frame (ORF) sequence was amplified by PCR from genomic DNA of P. yoelii strain YM with primers PyPNP-F (5′-[…]-3′) (SEQ ID NO:8) and PyPNP-R (5′-[…]-3′) (SEQ ID NO:9). The 729 by PCR product was ligated into a pTrcHis2-TOPO vector (Invitrogen) and expressed in E. coli strain TOP 10. Recombinant PyPNP with a C-terminal 6×His tag and the c-myc epitope was induced with 1 mM IPTG at 37° C. for 10 h and purified by nickel chromatography. The purified PyPNP was >95% homogeneous based on denaturing polyacrylamide gel electrophoresis and staining with Coomassie blue. Protein concentration was measured by Bradford protein assay (Bio-Rad).
(§1) Enzymatic Assays and Determination of Kinetic Constants. All phosphorylase activity assays were performed with purified enzyme in 50 mM KPO4, pH 7.4 as described^1. Briefly, phosphorylysis of inosine, 2′-deoxyinosine, and 5′-methylthioinosine was measured in a coupled assay with 115 milliunits/ml xanthine oxidase to convert hypoxanthine into uric acid. Uric acid formation was followed by spectrophotometric measurement at 293 nm (E293=12.9 mM^−1 cm^−1). Phosphorylysis of guanosine to guanine was monitored by measuring the disappearance of guanosine at 258 nm (E258=5.2 mM^−1 cm^−1). Adenosine and 5′-methylthioadenosine phosphorylase activities were measured by following the disappearance of the substrate at 265 nm (E256=1.9 mM^−1 cm^−1). Uridine phosphorylase activity was measured by following the conversion of uridine to uracil at 272 nm (E260=2.9 mM^−1 cm^−1). The Michaelis constant Km was determined as the substrate concentration at ½ the maximum velocity. The kcat was determined for each substrate by fits of substrate saturation data to the Michaelis-Menten equation. Values for kcat assume one catalytic site per subunit and are expressed as moles of product per second per mole of subunit.

[2] = biological target: T1, P. falciparum PNP (Plasmodium falciparum, UniProt Q8I3X4); assay: Phosphorylase activity assay, kinetic constants of PfPNP; settings: substrate of P. falciparum PNP
T1 sequence (Q8I3X4 1-245): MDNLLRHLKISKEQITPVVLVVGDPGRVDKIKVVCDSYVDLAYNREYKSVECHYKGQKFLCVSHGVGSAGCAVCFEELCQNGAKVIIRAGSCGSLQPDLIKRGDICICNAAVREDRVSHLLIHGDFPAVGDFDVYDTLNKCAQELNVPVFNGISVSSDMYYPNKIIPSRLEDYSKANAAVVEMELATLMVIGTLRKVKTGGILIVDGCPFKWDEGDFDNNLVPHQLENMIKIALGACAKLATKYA
Method: as §1

[3] = substrate: OC[C@H]1O[C@@H](n2cnc3c(O)ncnc32)[C@H](O)[C@@H]1O; assay: as above; settings: other: substrate of P. falciparum PNP; pH 7.4
Method: as §1

[4] = substrate: OC[C@H]1O[C@@H](n2cnc3c(O)ncnc32)C[C@@H]1O; assay: as above; settings: other: substrate of P. falciparum PNP; pH 7.4
Method: as §1

[5] = substrate: Nc1nc2c(ncn2[C@@H]2O[C@H](CO)[C@@H](O)[C@H]2O)c(=O)[nH]1; assay: as above; settings: other: substrate of P. falciparum PNP; pH 7.4
Method: as §1

## O=c1ccn([C@@H]2O[C@H](CO)[C@@H](O)[C@H]2O)c(=O)[nH]1 [uridine]
[1]; data not shown
  PyPNP activity with substrate: no detectable activity

## Nc1nc2c(ncn2[C@@H]2O[C@H](CO)[C@@H](O)[C@H]2O)c(=O)[nH]1 [Guanosine]
[1]
  Km: 8.9 ± 1.6 µM
  kcat: 3.8 ± 0.2 s⁻¹

## CSc1ncnc2c1ncn2[C@@H]1O[C@H](CO)[C@@H](O)[C@H]1O [Methylthioinosine]
[1]
  Km: 5 ± 0.4 µM
  kcat: 3.4 ± 0.1 s⁻¹
[2]
  Km: 10.8 ± 0.9 µM
  kcat: 2.6 ± 0.8 s⁻¹

## OC[C@H]1O[C@@H](n2cnc3c(O)ncnc32)[C@H](O)[C@@H]1O [Inosine]
[1]
  Km: 8.6 ± 1.5 µM
  kcat: 3.5 ± 0.1 s⁻¹

## OC[C@H]1O[C@@H](n2cnc3c(O)ncnc32)C[C@@H]1O [2′-deoxyinosine]
[1]
  Km: 79 ± 10 µM
  kcat: 1.2 ± 0.1 s⁻¹

B1: P. falciparum PNP (Plasmodium falciparum 3D7) (protein)
chain: T1 sequence (Q8I3X4 1-245)
[3]
  Km: 4.7 ± 0.9 µM
  kcat: 1.1 ± 0.2 s⁻¹
  kcat/Km: 230000 M⁻¹ s⁻¹
[4]
  Km: 91 ± 35 µM
  kcat: 0.9 ± 0.3 s⁻¹
  kcat/Km: 9800 M⁻¹ s⁻¹
[5]
  Km: 9.4 ± 1.2 µM
  kcat: 2.6 ± 0.5 s⁻¹
  kcat/Km: 280000 M⁻¹ s⁻¹
